Data set [1] deals with fighting developed by electric shock. Briefly: anti-fighting activity (suppressing or taming effect against electric foot shock induced fighting). It counts as in vivo, ddy male mice. The following applies: Mus musculus, 0.05 h, read-out: ED50 taming effect. Here is the method:
(§1) As controls, chlorodiazepoxide which is known as an anti-anxiety agent or minor tranquilizer and a known Compound 40 were used. The results are summarized in terms of 50% effective dose (ED50, mg/kg P.O.) in Table 1 below.
(§2) The animals used were ddy male mice (weighing 20 to 22 g) and they were tested for anti-fighting and anti-morphine actions as indications of anti-anxiety action. The anti-fighting activity of the test compound was evaluated by its suppressing or taming effect against fighting which was developed by applying an electric shock (28 V-DC, 4-5 mA, 3 min.) through a grid to the foot of the animal [R. E. Tedeschi, D. H. Tedeschi, A. Mucha, L. Cook, P. A. Mattis, E. J. Fellows, J. Pharmacol. exp. Therap., 125, 28 (1959)] The anti-morphine activity was evaluated according to the method of Takagi et al. by the suppressing effect against a tail reaction induced by administration of 20 mg/kg i.p. of morphine [H. Takagi, T. Kamioka, S. Kobayashi, Y. Suzuki and K. Tachikawa, Japanese J. of Pharmacology, 66, 107 (1970)].

Data set [2] in a line: LD50 (Litchfield-Wilcoxon method). The settings on record: mouse, in vivo, PO, mice. Here is the method: as §2
The values for LD50 were calculated by the Litchfield-Wilcoxon method [J. T. Litchfield and F. Wilcoxon, J. Pharmacol. exp. Therap., 96, 99 (1949)].

Data set [3] can be described thus: muscle relaxant action, traction test. It counts as in vivo, ddy male mice. The following applies: Mus musculus, po, read-out: ED50 traction test. Here is the method: as §1, §2
Muscle relaxant action was evaluated by a traction test [S. Courvoisier, R. Ducrot, L. Julou, "Psychotropic Drugs" Ed. by S. Garattini, V. Ghetti, p. 313 (Elsevier) 1957].

The subject of data set [4] is tail reaction induced by morphine. Briefly: anti-morphine activity (suppression of tail reaction induced by 20 mg/kg i.p. morphine). It counts as in vivo, ddy male mice. The following applies: Mus musculus, read-out: ED50 anti-morphine activity. Here is the method:
as §1, §2

Data set [5] has as its system anti-fighting and anti-morphine actions. Briefly: anti-anxiety activity (anti-fighting and anti-morphine actions as indications). It counts as in vivo, ddy male mice. The settings on record: PO, mice; versus chlorodiazepoxide and Compound 40. Here is the method: as §1, §2
[6] abbreviates: PO, mice, electric shock 28 V-DC, 4-5 mA, 3 min.
Where [7] appears, read: PO, mice, morphine 20 mg/kg i.p.

Structures are written as SMILES. Like-named read-outs stand apart in the source and are kept apart here.

On to `CNC1=Nc2ccc(Cl)cc2C(c2ccccc2)=[N+]([O-])C1` [Chlorodiazepoxide, reference compound], for which the ED50 in data set [1] (po) came to 12.5 mg/kg; in data set [3], 8.3 mg/kg; in data set [4] (po) it was 13 mg/kg. Also, the LD50 in data set [2] turned out to be 720 mg/kg.
In the case of `c1ccc(N2CCN(CCCOc3ccc4c(c3)CCC4)CC2)cc1` [Compound 1, 5-[3-(4-phenyl-1-piperazinyl)propoxy]indane], the 50% effective dose (ED50) in data set [1] (setting [6]) was 6.6 mg/kg; in data set [3] it was 14.1 mg/kg; in data set [4] (setting [7]), 6.3 mg/kg. Also, in data set [5], the “anti-anxiety activities compared with controls” value was “superior to those of chlorodiazepoxide and Compound 40”. The median lethal dose (LD50) in data set [2] was over 1500 mg/kg.
Turning to `Fc1ccc(N2CCN(CCCOc3ccc4c(c3)CCC4)CC2)cc1` [Compound 4, 5-{3-[4-(4-fluorophenyl)-1-piperazinyl]propoxy}indane], the figures for the median effective dose (ED50) in data set [1] (setting [6]), in data set [3] and in data set [4] (setting [7]) were 7.5 mg/kg, 28 mg/kg and 6 mg/kg, respectively. Moreover, the “anti-anxiety activities compared with controls” value in data set [5] was “superior to those of chlorodiazepoxide and Compound 40”. This molecule also displayed an LD50 in data set [2] of over 2000 mg/kg.
As to `Fc1ccc(N2CCN(CCCCOc3ccc4c(c3)CCC4)CC2)cc1` [Compound 5, 5-{4-[4-(4-fluorophenyl)-1-piperazinyl]butoxy}indane], the ED50 stood at 12 mg/kg in data set [1] (setting [6]), 21.5 mg/kg in data set [3] and 11.1 mg/kg in data set [4] (setting [7]). Moreover, the “anti-anxiety activities compared with controls” value in data set [5] was “superior to those of chlorodiazepoxide and Compound 40”. In data set [2], this molecule showed an LD50 of over 1100 mg/kg.
`Clc1cccc(N2CCN(CCCOc3ccc4c(c3)CCC4)CC2)c1` [Compound 17]: the 50% effective dose (ED50) in data set [1] (setting [6]) was found to be 12.6 mg/kg; in data set [3], 45 mg/kg; in data set [4] (setting [7]) it was 15.5 mg/kg. In addition, the “anti-anxiety activities compared with controls” value in data set [5] was “superior to those of chlorodiazepoxide and Compound 40”. The molecule further showed a median lethal dose (LD50) in data set [2] of over 2000 mg/kg.
Take `Fc1cc2c(cc1OCCCN1CCN(c3ccccc3)CC1)CCC2` [Compound 18, 6-fluoro-5-[3-(4-phenyl-1-piperazinyl)propoxy]indane]: the 50% effective dose (ED50) in data set [1] (setting [6]) came to 2.9 mg/kg; in data set [3] it was 14.5 mg/kg; in data set [4] (setting [7]), 10.6 mg/kg. In data set [5], the “anti-anxiety activities compared with controls” value is “superior to those of chlorodiazepoxide and Compound 40”. The molecule also had a 50% lethal dose (LD50) in data set [2] of over 2000 mg/kg.
As for `Fc1ccc(N2CCN(CCCOc3cc4c(cc3F)CCC4)CC2)cc1` [Compound 19, 6-fluoro-5-{3-[4-(4-fluorophenyl)-1-piperazinyl]propoxy}indane], the median effective dose (ED50) in data set [1] (setting [6]) turned out to be 1 mg/kg; in data set [3], 17.5 mg/kg; in data set [4] (setting [7]) it was 12.5 mg/kg. Also, the “anti-anxiety activities compared with controls” value in data set [5] is “superior to those of chlorodiazepoxide and Compound 40”. For the same molecule, the LD50 in data set [2] is over 2000 mg/kg.
For `Fc1cc2c(cc1OCCCN1CCN(c3cccc(Cl)c3)CC1)CCC2` [Compound 21, 6-fluoro-5-{3-[4-(3-chlorophenyl)-1-piperazinyl]propoxy}indane], the ED50 in data set [1] (setting [6]) amounted to 14.5 mg/kg; in data set [3], 88 mg/kg; in data set [4] (setting [7]) it was 13.8 mg/kg. In addition, in data set [5], the “anti-anxiety activities compared with controls” value was “superior to those of chlorodiazepoxide and Compound 40”. In data set [2], the median lethal dose (LD50) was in the range of 1500 to 2000 mg/kg.
Turning to `Cc1cc2c(cc1OCCCN1CCN(c3ccccc3)CC1)CCC2` [Compound 24, 6-methyl-5-[3-(4-phenyl-1-piperazinyl)propoxy]indane], the 50% effective dose (ED50) in data set [1] (setting [6]) stood at 8.5 mg/kg; in data set [3] it was 46 mg/kg; in data set [4] (setting [7]), 16 mg/kg. The “anti-anxiety activities compared with controls” value in data set [5] was “superior to those of chlorodiazepoxide and Compound 40”. The same molecule showed an LD50 in data set [2] of over 2000 mg/kg.
For `COc1cc2c(cc1OCCCN1CCN(c3ccc(F)cc3)CC1)CCC2` [Compound 30, 6-methoxy-5-{3-[4-(4-fluorophenyl)-1-piperazinyl]propoxy}indane], the ED50 in data set [1] (setting [6]) was determined as 13 mg/kg; in data set [3] it was 12.5 mg/kg; in data set [4] (setting [7]) it was 10.2 mg/kg. Moreover, the “anti-anxiety activities compared with controls” value in data set [5] is “superior to those of chlorodiazepoxide and Compound 40”. The molecule further yielded an LD50 in data set [2] of over 1000 mg/kg.
For `O=C(CCCN1CCN(c2ccc(F)cc2)CC1)c1ccc2c(c1)CCC2` [Compound 40, reference compound], the ED50 in data set [1] (setting [6]) was 20 mg/kg; in data set [3], 57 mg/kg; in data set [4] (setting [7]), 15.5 mg/kg. In data set [2], this molecule displayed a 50% lethal dose (LD50) of 1000 to 1500 mg/kg.

(Values after US4339580A, “Piperazinylalkoxyindanes and acid addition salts thereof” (Mitsubishi Chemical Industries, Limited, priority 1979, dated 1982).)
